Data as given in patent EP3981864A1, “DETERGENT COMPOSITION” (priority 2020, dated 2022).

Columns and labels:
Experiment in all cases: Alpha-dioxygenase activity assay (oxygen consumption, TON)
Format in all cases: biochemical
Conditions in all cases: fatty acid 100 µM, enzyme 6 ppm, 50 mM HEPES pH 9.0, 37°C; initial rate of oxygen consumption / enzyme concentration
[1] = tested on: Phaeosphaeria nodorum αDOX (SEQ ID NO: 2), fatty acid alpha-dioxygenase, Q0URU2, N-terminal His-tag variant SEQ ID NO: 251
Text: (§1) Phaeosphaeria nodorum αDOX (SEQ ID NO: 2) is a fatty acid alpha-dioxygenase that converts fatty acids into the corresponding 2-hydroperoxy fatty acids and is included as an example of the present invention. A codon optimized gene (SEQ ID NO: 250) encoding for an alpha-dioxygenase variant (SEQ ID NO: 251), including an N-terminal amino acid sequence containing a His-tag was designed and synthesized by Genscript. After gene synthesis, the protein was expressed and purified. In brief, the complete synthetic gene sequence was subcloned into a pET30a vector using the NdeI/HindIII cloning sites. For heterologous expression, Escherichia coli BL21 (DE3) cells were transformed with the recombinant plasmid and a single colony was inoculated into LB medium containing kanamycin (50 mg/L). A pre-starter culture was then inoculated into flasks containing Magic Media (Thermo Fisher, Catalog # K6803) supplemented with kanamycin (50 mg/L) and incubated at 16 °C for 72 h. At an OD600nm = 0.5 - 1.0, 5-aminolevulinic acid (final concentration 0.5 mM) was added. Cells were harvested by centrifugation at 5000 rpm and 4°C and the pellet was lysed using a bacterial cell lysis buffer (B-PER - Themo Fisher, Waltham, MA). After centrifugation, the supernatant was collected, and the protein was purified by one-step purification using HisPur™ Ni-NTA Spin Columns (Thermo Scientific, Catalog # 88226) and standard protocols known in the art. The protein was concentrated using a 10 kDa MW cutoff Amicon Ultra centrifugal filter unit (Millipore Sigma, Catalog# UFC901024), followed by desalting using a disposable PD-10 desalting column (GE Healthcare Life Sciences, Catalog# 17085101) and a buffer containing 50 mM Tris-HCl, 500 mM NaCl, and 10% Glycerol at pH 8.0. […]
(§2) Reactions with alpha-dioxygenases were performed as follows. […] The reaction was incubated for up to 10 minutes at 37°C with 200 rpm agitation and the conversion was monitored using an oxygen sensor. The TON (in s-1) were calculated as the ratio between the initial rate of oxygen consumption (in µM/s) and the concentration of enzyme (in µM). […]

[2] = tested on: Pseudomonas alcaligenes αDOX (SEQ ID NO: 12), fatty acid alpha-dioxygenase, U3BA19, N-terminal His-tag variant SEQ ID NO: 271 (comparative)
Text: as §1, with “Pseudomonas alcaligenes αDOX” for “Phaeosphaeria nodorum αDOX”, “NO: 12)” for “NO: 2)”, “as a comparative” for “as an”, “NO: 270)” for “NO: 250)”, “NO: 271),” for “NO: 251),”
as §2

[3] = tested on: Streptomyces avermitilis αDOX (SEQ ID NO: 13), fatty acid alpha-dioxygenase, Q82M86, N-terminal His-tag variant SEQ ID NO: 273 (comparative)
Text: as §1, with “Streptomyces avermitilis αDOX” for “Phaeosphaeria nodorum αDOX”, “NO: 13)” for “NO: 2)”, “as a comparative” for “as an”, “NO: 272)” for “NO: 250)”, “NO: 273),” for “NO: 251),”, “art.” for “art. The protein was concentrated using a 10 kDa MW cutoff Amicon Ultra centrifugal filter unit (Millipore Sigma, Catalog# UFC901024), followed by desalting using a disposable PD-10 desalting column (GE Healthcare Life Sciences, Catalog# 17085101) and a buffer containing 50 mM Tris-HCl, 500 mM NaCl, and 10% Glycerol at pH 8.0.”
as §2

CCCCCCCC/C=C\CCCCCCCC(=O)O [Oleic Acid]
Oleic Acid, TON [1]: 0.99 s⁻¹
Oleic Acid, TON [2]: 0.00 s⁻¹
Oleic Acid, TON [3]: 0.00 s⁻¹

CCCCCCCCCCCCCCCC(=O)O [Palmitic Acid]
Palmitic Acid, TON [1]: 20.63 s⁻¹
Palmitic Acid, TON [2]: 0.36 s⁻¹
Palmitic Acid, TON [3]: 0.00 s⁻¹

CCCCCCCCCCCCCCCCCC(=O)O [Stearic Acid]
Stearic Acid, TON [1]: 8.80 s⁻¹
Stearic Acid, TON [2]: 0.21 s⁻¹
Stearic Acid, TON [3]: 0.10 s⁻¹
